Where two headings read alike, the source gives them in different places.
Columns and labels:
[1] = molecular target: CDC7 (Homo sapiens, UniProt O00311); assay: CDC7 inhibition, biochemical chemiluminescence assay (Kinase Glo, IC50 determination)
Procedure: Characterization of CDC7 Inhibition in a Biochemical Chemiluminesence Assay (IC50 Determination):
The IC50 evaluation of compounds against the CDC7 enzyme was performed in a Chemiluminesence assay utilizing a Greiner 384-well white binding plate format. […] Upon addition of 10 μL of CDC-7 (GB) to the designated well plates and subsequent incubation for ten minutes at ambient temperature, 10 μL of ATP mix in Tris Base was added. Following an incubation period of 90 minutes at ambient temperature (24-27° C.), 20 μL of Kinase Glo (Promega) was added to measure kinase activity by quantitating the amount of ATP remaining in solution. The luminescence was measured following a Luciferase Protocol on either EnVision or Victor plate readers.

[2] = molecular target: CK2 (Homo sapiens, UniProt P68400); assay: CK2 inhibition, biochemical chemiluminescence holoenzyme assay (Kinase Glo, IC50 determination); details: Table 1 activity class; symbol given only if active; read-out: CK2 IC50 (Activity C)
Outline: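 Holoenzyme CK2 assay; compounds pre-incubated with substrate and enzyme, then reacted 150 min at 24-27° C. Remaining ATP measured as luminescence with Kinase Glo, and IC50 derived from the signal.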

[3] = molecular target: PIM (PIM-1, PIM-2, and/or PIM-3); assay: PIM-1, PIM-2 and PIM-3 inhibition, biochemical chemiluminescence assays (Kinase Glo, IC50 determination); details: Table 1 activity class; PIM refers to PIM-1, PIM-2, and/or PIM-3; read-out: PIM IC50 (Activity B)
[4] = Table 1 activity class, symbol given only if active, read-out: CDC7 IC50 (Activity A)
[5] = compounds in Table 1, read-out: CDC7 IC50 value

Chain of CDC7 (O00311 whole entry): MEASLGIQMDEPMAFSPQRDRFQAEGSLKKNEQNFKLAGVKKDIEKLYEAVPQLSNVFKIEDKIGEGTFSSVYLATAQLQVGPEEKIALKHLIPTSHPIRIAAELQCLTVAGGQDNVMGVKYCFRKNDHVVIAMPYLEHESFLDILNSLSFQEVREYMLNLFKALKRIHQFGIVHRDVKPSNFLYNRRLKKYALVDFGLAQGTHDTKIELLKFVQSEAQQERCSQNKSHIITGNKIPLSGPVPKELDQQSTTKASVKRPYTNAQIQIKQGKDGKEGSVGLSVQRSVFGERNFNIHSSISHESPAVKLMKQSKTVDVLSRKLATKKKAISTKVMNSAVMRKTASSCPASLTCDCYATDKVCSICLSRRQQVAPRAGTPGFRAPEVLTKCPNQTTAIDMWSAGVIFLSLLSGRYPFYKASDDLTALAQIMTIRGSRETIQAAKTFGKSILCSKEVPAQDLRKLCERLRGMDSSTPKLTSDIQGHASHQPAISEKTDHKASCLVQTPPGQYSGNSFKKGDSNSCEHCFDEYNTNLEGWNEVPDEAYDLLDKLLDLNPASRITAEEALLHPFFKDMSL
Chain of CDC7 (Q9UBU7 whole entry partner): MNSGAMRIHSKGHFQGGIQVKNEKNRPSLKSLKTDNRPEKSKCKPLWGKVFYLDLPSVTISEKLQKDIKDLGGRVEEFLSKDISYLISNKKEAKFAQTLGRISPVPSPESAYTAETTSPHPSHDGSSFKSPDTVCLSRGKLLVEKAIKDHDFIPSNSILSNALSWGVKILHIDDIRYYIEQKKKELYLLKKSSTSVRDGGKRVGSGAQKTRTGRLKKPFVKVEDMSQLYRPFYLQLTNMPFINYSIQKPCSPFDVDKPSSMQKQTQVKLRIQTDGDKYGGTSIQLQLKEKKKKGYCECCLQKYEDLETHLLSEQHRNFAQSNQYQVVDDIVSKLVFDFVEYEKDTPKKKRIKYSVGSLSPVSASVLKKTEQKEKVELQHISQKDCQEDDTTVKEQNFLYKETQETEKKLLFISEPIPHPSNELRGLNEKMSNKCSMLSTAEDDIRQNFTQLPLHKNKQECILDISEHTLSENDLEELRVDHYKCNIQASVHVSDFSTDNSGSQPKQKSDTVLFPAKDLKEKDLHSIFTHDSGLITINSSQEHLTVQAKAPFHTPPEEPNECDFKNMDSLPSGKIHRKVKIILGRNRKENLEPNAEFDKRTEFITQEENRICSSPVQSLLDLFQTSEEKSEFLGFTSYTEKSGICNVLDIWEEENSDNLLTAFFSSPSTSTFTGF
Chain of CK2 (P68400 whole entry): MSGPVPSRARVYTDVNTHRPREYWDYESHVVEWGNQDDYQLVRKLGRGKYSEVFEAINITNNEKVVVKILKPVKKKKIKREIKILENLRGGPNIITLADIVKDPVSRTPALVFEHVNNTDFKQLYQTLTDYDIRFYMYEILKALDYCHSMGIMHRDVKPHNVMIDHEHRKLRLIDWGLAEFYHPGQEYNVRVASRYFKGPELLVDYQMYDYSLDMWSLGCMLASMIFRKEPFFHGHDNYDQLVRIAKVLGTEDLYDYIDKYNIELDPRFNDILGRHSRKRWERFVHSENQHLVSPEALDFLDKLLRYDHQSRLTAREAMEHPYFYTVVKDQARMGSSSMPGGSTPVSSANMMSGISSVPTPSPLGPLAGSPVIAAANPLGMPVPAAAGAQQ
Chain of CK2 (P67870 whole entry partner): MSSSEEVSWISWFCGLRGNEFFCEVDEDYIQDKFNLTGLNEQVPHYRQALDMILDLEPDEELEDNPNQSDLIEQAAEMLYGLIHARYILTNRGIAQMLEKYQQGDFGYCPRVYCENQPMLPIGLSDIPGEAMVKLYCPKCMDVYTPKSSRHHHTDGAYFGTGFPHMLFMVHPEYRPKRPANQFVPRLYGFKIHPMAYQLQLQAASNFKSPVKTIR

| Structure (SMILES) | IC50 [1, 4] [µM] | IC50 [2] [µM] | IC50 [3] [µM] | IC50 ([1]; CDC7 IC50 (Activity A), Table 1 activity class, symbol given only if active) [µM] | IC50 ([1]; CDC7 IC50 value, compounds in Table 1) [µM] | IC50 [1, 5] [µM] |
| --- | --- | --- | --- | --- | --- | --- |
| O=c1[nH]c(CN2CCC(NCC3CCNCC3)C2)nc2c1oc1ccc(Br)cc12 (stereo not shown) [Compound 110, 8-bromo-2-({3-[(piperidin-4-ylmethyl)amino]pyrrolidin-1-yl}methyl)[1]benzofuro[3,2-d]pyrimidin-4(3H)-one] | < 10 | < 10 | < 10 |  |  |  |
| CN1CCN(c2ccc(CNCCc3nc4c(oc5ccc(Br)cc54)c(=O)[nH]3)cc2)CC1 [Compound 111, 8-bromo-2-[2-({[4-(4-methylpiperazin-1-yl)phenyl]methyl}amino)ethyl][1]benzofuro[3,2-d]pyrimidin-4(3H)-one] | < 10 | < 10 | < 10 |  |  |  |
| O=c1[nH]c(-c2ccncc2Cl)nc2c1oc1ccc(Br)cc12 [Compound 112, 8-bromo-2-(3-chloropyridin-4-yl)[1]benzofuro[3,2-d]pyrimidin-4(3H)-one] | < 10 | < 10 | < 10 |  |  |  |
| O=c1[nH]c(CN2CCN(CCn3ccnc3)CC2)nc2c1oc1ccc(Br)cc12 [Compound 113, 8-bromo-2-({4-[2-(1H-imidazol-1-yl)ethyl]piperazin-1-yl}methyl)[1]benzofuro[3,2-d]pyrimidin-4(3H)-one] | < 10 | < 10 | < 10 |  |  |  |
| O=c1[nH]c(CN2CCC(F)(F)CC2)nc2c1oc1ccc(Br)cc12 [Compound 114, 8-bromo-2-[(4,4-difluoropiperidin-1-yl)methyl][1]benzofuro[3,2-d]pyrimidin-4(3H)-one] | < 10 | < 10 | < 10 |  |  |  |
| CN1CCN(c2nc3c(oc4ccc(Br)cc43)c(=O)[nH]2)CC1 [Compound 115, 8-bromo-2-(4-methylpiperazin-1-yl)[1]benzofuro[3,2-d]pyrimidin-4(3H)-one] | < 10 | < 10 | < 10 |  |  |  |
| O=c1[nH]c(-c2ccc(Br)cc2Cl)nc2c1oc1ccc(Br)cc12 [Compound 116, 8-bromo-2-(4-bromo-2-chlorophenyl)[1]benzofuro[3,2-d]pyrimidin-4(3H)-one] | < 10 | < 10 | < 10 |  |  |  |
| CNC1CCN(Cc2nc3c(oc4ccc(Br)cc43)c(=O)[nH]2)C1 (stereo not shown) [Compound 118, 8-bromo-2-{[3-(methylamino)pyrrolidin-1-yl]methyl}[1]benzofuro[3,2-d]pyrimidin-4(3H)-one] | < 10 | < 10 | < 10 |  |  |  |
| O=c1[nH]c(CN2C[C@@H]3C[C@H]2CN3)nc2c1oc1ccc(Br)cc12 [Compound 119, 8-bromo-2-[(1S,4S)-2,5-diazabicyclo[2.2.1]hept-2-ylmethyl][1]benzofuro[3,2-d]pyrimidin-4(3H)-one] |  | < 10 | < 10 | < 10 | < 0.1 |  |
| CC(=O)Nc1ccc(-c2nc3c(oc4ccc(Br)cc43)c(=O)[nH]2)c(Cl)c1 [Compound 121, N-[4-(8-bromo-4-oxo-3,4-dihydro[1]benzofuro[3,2-d]pyrimidin-2-yl)-3-chlorophenyl]acetamide] | < 10 | < 10 | < 10 |  |  |  |
| Cc1n[nH]c2ccc(-c3nc4c(oc5ccc(Br)cc54)c(=O)[nH]3)cc12 [Compound 123, 8-bromo-2-(3-methyl-1H-indazol-5-yl)[1]benzofuro[3,2-d]pyrimidin-4(3H)-one] | < 10 | < 10 | < 10 |  |  |  |
| COc1ccc2oc3c(=O)[nH]c(-c4ccc([N+](=O)[O-])cc4Cl)nc3c2c1 [Compound 124, 2-(2-chloro-4-nitrophenyl)-8-(methyloxy)[1]benzofuro[3,2-d]pyrimidin-4(3H)-one] | < 10 | < 10 | < 10 |  |  |  |
| O=c1[nH]c(-c2cc([N+](=O)[O-])ccc2Cl)nc2c1oc1ccc(Br)cc12 [Compound 126, 8-bromo-2-(2-chloro-5-nitrophenyl)[1]benzofuro[3,2-d]pyrimidin-4(3H)-one] | < 10 | < 10 | < 10 |  |  |  |
| CN(C)CC(=O)Nc1ccc(-c2nc3c(oc4ccc(Br)cc43)c(=O)[nH]2)c(Cl)c1 [Compound 127, N-[4-(8-bromo-4-oxo-3,4-dihydro[1]benzofuro[3,2-d]pyrimidin-2-yl)-3-chlorophenyl]-N′2′,N′2′-dimethylglycinamide] | < 10 | < 10 | < 10 |  |  |  |
| CS(=O)(=O)c1ccc(-c2nc3c(oc4ccc(Br)cc43)c(=O)[nH]2)c(Cl)c1 [Compound 128, 8-bromo-2-[2-chloro-4-(methylsulfonyl)phenyl][1]benzofuro[3,2-d]pyrimidin-4(3H)-one] | < 10 | < 10 | < 10 |  |  | < 0.1 |
| CC(C)(CN1CCOCC1)NCc1nc2c(oc3ccc(Br)cc32)c(=O)[nH]1 [Compound 130, 8-bromo-2-{[(1,1-dimethyl-2-morpholin-4-ylethyl)amino]methyl}[1]benzofuro[3,2-d]pyrimidin-4(3H)-one] | < 10 | < 10 | < 10 |  |  |  |
| Nc1ccc(Cl)c(-c2nc3c(oc4ccc(Br)cc43)c(=O)[nH]2)c1 [Compound 134, 2-(5-amino-2-chlorophenyl)-8-bromo[1]benzofuro[3,2-d]pyrimidin-4(3H)-one] | < 10 | < 10 | < 10 |  |  |  |
| CN(C)CCC(=O)Nc1ccc(-c2nc3c(oc4ccc(Br)cc43)c(=O)[nH]2)c(Cl)c1 [Compound 135, N-[4-(8-bromo-4-oxo-3,4-dihydro[1]benzofuro[3,2-d]pyrimidin-2-yl)-3-chlorophenyl]-N′3′,N′3′-dimethyl-beta-alaninamide] | < 10 | < 10 | < 10 |  |  |  |
| COc1ccc2oc3c(=O)[nH]c(-c4ccc(NCC5CCNCC5)cc4Cl)nc3c2c1 [Compound 138, 2-{2-chloro-4-[(piperidin-4-ylmethyl)amino]phenyl}-8-(methyloxy)[1]benzofuro[3,2-d]pyrimidin-4(3H)-one] | < 10 | < 10 | < 10 |  |  |  |
| O=C(Nc1ccc(-c2nc3c(oc4ccc(Br)cc43)c(=O)[nH]2)c(Cl)c1)C1CCCNC1 (stereo not shown) [Compound 140, N-[4-(8-bromo-4-oxo-3,4-dihydro[1]benzofuro[3,2-d]pyrimidin-2-yl)-3-chlorophenyl]piperidine-3-carboxamide] | < 10 | < 10 | < 10 |  |  |  |
| O=c1[nH]c(CN2CCNCC2)nc2c1oc1ccc(Br)cc12 [Compound 141, 8-bromo-2-(piperazin-1-ylmethyl)[1]benzofuro[3,2-d]pyrimidin-4(3H)-one] | < 10 | < 10 | < 10 |  |  |  |
| O=C(Nc1ccc(-c2nc3c(oc4ccc(Br)cc43)c(=O)[nH]2)c(Cl)c1)c1ccncc1 [Compound 143, N-[4-(8-bromo-4-oxo-3,4-dihydro[1]benzofuro[3,2-d]pyrimidin-2-yl)-3-chlorophenyl]pyridine-4-carboxamide] | < 10 | < 10 | < 10 |  |  |  |
| COc1ccc2oc3c(=O)[nH]c(-c4ccc(F)cc4Cl)nc3c2c1 [Compound 144, 2-(2-chloro-4-fluorophenyl)-8-(methyloxy)[1]benzofuro[3,2-d]pyrimidin-4(3H)-one] | < 10 | < 10 | < 10 |  |  |  |
| O=c1[nH]c(N2CCOCC2)nc2c1oc1ccc(Br)cc12 [Compound 147, 8-bromo-2-morpholin-4-yl[1]benzofuro[3,2-d]pyrimidin-4(3H)-one] | < 10 | < 10 | < 10 |  |  | < 0.1 |
| O=c1[nH]c(-c2cnccc2Cl)nc2c1oc1ccc(Br)cc12 [Compound 148, 8-bromo-2-(4-chloropyridin-3-yl)[1]benzofuro[3,2-d]pyrimidin-4(3H)-one] | < 10 | < 10 | < 10 |  |  |  |
| CC(C)C(c1nc2c(oc3ccc(Br)cc32)c(=O)[nH]1)N1CCCC1 (stereo not shown) [Compound 153, 8-Bromo-2-(2-methyl-1-pyrrolidin-1-ylpropyl)[1]benzofuro[3,2-d]pyrimidin-4(3H)-one] | < 10 | < 10 | < 10 |  |  |  |
| O=c1[nH]c(-c2ccc(NCC3CCNC3)cc2Cl)nc2c1oc1ccc(Br)cc12 (stereo not shown) [Compound 154, 8-bromo-2-{2-chloro-4-[(pyrrolidin-3-ylmethyl)amino]phenyl}[1]benzofuro[3,2-d]pyrimidin-4(3H)-one] | < 10 | < 10 | < 10 |  |  |  |
| O=c1[nH]c(-c2ccc(NCCC3CCCNC3)cc2Cl)nc2c1oc1ccc(Br)cc12 (stereo not shown) [Compound 155, 8-bromo-2-{2-chloro-4-[(2-piperidin-3-ylethyl)amino]phenyl}[1]benzofuro[3,2-d]pyrimidin-4(3H)-one] | < 10 | < 10 | < 10 |  |  |  |
| O=c1[nH]c(C2CCNCC2)nc2c1oc1ccc(Br)cc12 [Compound 157, 8-bromo-2-piperidin-4-yl[1]benzofuro[3,2-d]pyrimidin-4(3H)-one] | < 10 | < 10 | < 10 |  |  | < 0.1 |

— patent US20090247559A1 (Exelixis, Inc., priority 2007, published 2009)
